# Data taken from patent US20240115663A1, “COMPOSITIONS COMPRISING AT LEAST AN INSULIN AND AN AMYLIN RECEPTOR AGONIST FOR TREATING DIABETES, IN A PATIENT/PERSON HAVING A BMI OF MORE THAN 28 KG/M² AND/OR AN HBA1C OF MORE THAN 7.6%” (ADOCIA, priority 2022, published 2024).
# Assay: Phase 2 clinical trial of M1Pram vs Humalog in subjects with type 1 diabetes: body weight change after 16 weeks
# Assay type: in vivo, human
# Protocol: A phase 2 clinical trial was conducted to confirm the efficacy and safety of M1Pram in subjects with type 1 diabetes (NCT04816890).
# The primary objective of the trial was to compare the efficacy of prandial use of M1Pram to Humalog® (insulin lispro) on body weight change after 16 weeks of optimised titration, in combination with a basal insulin.
# In addition, exploratory objectives included the comparison of the efficacy of prandial use of M1Pram with Humalog® in subgroups of subjects with a body mass index (BMI) and HbA1c above and below the median at screening.
# A post-hoc analysis also included the comparison of the efficacy of prandial use of M1Pram with Humalog® in subgroups of subjects with a body mass index (BMI)>=30 kg/m^2.
# The primary endpoint was the body weight change from baseline to week 16 of treatment.
# In addition, exploratory endpoints included analysis of the subgroups of the primary endpoint according to BMI and HbA1c below and above the median.
# A post-hoc analysis was also performed to analyze the subgroups of the primary endpoint according to BMI>=30 kg/m^2.
# This was a multicentric, open-label, randomized, two-arm parallel, active-comparator controlled phase 2 clinical trial evaluating the efficacy and safety of M1Pram in subjects with type 1 diabetes.
# Key inclusion criteria included subjects • with T1D • aged between 18 and 64 years • with a Body Mass Index (BMI) between 25.0 and 35.0 kg/m^2, both inclusive, • with HbA1c between 7.0% and 9.5%, both inclusive • with a Diabetes duration of at least 12 months • Using a multiple dosing insulin therapy (MDI) with a basal insulin and a rapid-acting insulin • having at least two meals per day.
# 80 patients were randomized 1:1 to M1Pram or Humalog®.
# The trial consisted in 4 periods: • an optional a run-in period of 2 to 4 weeks for patients not already using the Continuous Glucose Monitoring (CGM) system used in the trial or either insulin degludec or insulin glargine as basal insulins • a 3-week baseline data recording period • after randomization, a treatment period of about 16 weeks (W1 to 16) • and a safety follow-up period of 1 to 2 weeks after the last product administration.
# 37 subjects completed the trial in the Humalog® arm and 34 in the M1 Pram arm. The subgroups were selected depending on the patients' metrics at screening.
substance,measurement,setting,value
insulin lispro [Humalog ®],Mean BW change in kg (SD),"All completers, baseline to week 16 of treatment, T1D subjects, prandial use with basal insulin",−0.45 (3.12) kg
same,Mean BW change in kg (SD),"Subgroup BMI <= 28 kg/m^2 at screening, baseline to week 16",−0.69 (3.19) kg
same,Mean BW change in kg (SD),"Subgroup BMI > 28 kg/m^2 at screening, baseline to week 16",−0.17 (3.09) kg
same,Mean BW change in kg (SD),"Subgroup BMI >= 30 kg/m^2 (post-hoc), baseline to week 16",−0.57 (3.60) kg
same,Mean BW change in kg (SD),"Subgroup HbA1c <= 7.6% at screening, baseline to week 16",−0.87 (2.20) kg
same,Mean BW change in kg (SD),"Subgroup HbA1c > 7.6% at screening, baseline to week 16",0.04 (3.95) kg
